# Laboratory results taken from PMC7767506, “Synthesis and Characterization of Store-Operated Calcium Entry Inhibitors Active in the Submicromolar Range” (International Journal of Molecular Sciences, 2020).
# Experiments:
# [1] = tested on: Orai1-expressing lymphoblastoid cell line; assay: SOCE in Orai1-expressing lymphoblastoid cell line (LCL Orai1+); format: cell-based, human; conditions: 1 µM
# Description: We next tested P11 efficacy on two lymphoblastoid cell lines (“LCL”) established from an Orai1-deficient with a severe combined immunodeficiency (“LCL Orai1−”) and a healthy (“LCL Orai1+”) patients (Figure 3C [19]). […] However, CaCl2 addition after 10 min of TG treatment was only able to induce a massive [Ca^2+]cyt rise in LCL expressing Orai1 proteins, confirming the SOCE default of the SCID patient.
# (§1) [Ca^2+]cyt was recorded by a fluorimetric ratio technique as previously described. Leukocytes were spun and resuspended at a density of 10^6 cells/mL in Hepes buffered saline (HBS; 135 mM NaCl, 5.9 mM KCl, 1.2 mM MgCl2, 11.6 mM Hepes, 11.5 mM glucose adjusted to pH 7.3 with NaOH). Due to the presence of 0.002% Ca^2+ in the NaCl, this HBS medium contained 0.1 mM of Ca^2+. […] Ultraviolet light of 360 nm was used for excitation of Indo-1, and emissions at 405 and 480 nm were recorded. […] The maximum Indo-1 fluorescence (Rmax) was obtained by adding 1 µM ionomycin to the cell suspension in the presence of 10 mM extracellular CaCl2. Minimum fluorescence was determined following the depletion of external Ca^2+ with 5 mM EGTA.
# (§2) To visualize the SOCE, cells were placed into the quartz cuvette and 0.5 EGTA was added just before the beginning of the recordings. […] In the dose-response experiments, different concentrations of 2-APB and its analogs were added 30 s prior to Ca^2+ readdition.
# [2] = tested on: SOCE in U937 (human monocytic lymphoma cell line); assay: Thapsigargin-induced SOCE in U937 cells, Indo-1; format: cell-based
# Description: We also tested P11 on the DG75 (Burkitt B lymphoma), U937 (monocytic lymphoma), and MDA-MB231 (breast carcinoma) cell lines. […] Thus, in several cell lines, full inhibition of the SOCE was already obtained at a concentration of 100 nM (Figure 3B).
# as §1, with “Ca^2+. Then, cells were incubated in the dark with 4 μM Indo-1-AM for one hour at room temperature under slow agitation.” for “Ca^2+.”
# as §2
# [3] = tested on: Mn2+ influx through SOCC in Jurkat cells; assay: Mn2+ influx by Indo-1 quenching in Jurkat cells; format: cell-based, human; conditions: 1 µM
# Description: As [Ca^2+]cyt results from a balance between Ca^2+ influx and efflux, this decay was due to the activity of the plasma membrane Ca^2+ ATPases (“PMCA”) and the Na^+/Ca^2+ exchanger (“NCX”) counteracting the SOCE (TG has blocked the SERCA activity, impairing Ca^2+ uptake in the ER). To ensure that compound P11 acted on the SOCE and not on the Ca^2+-efflux mechanisms, we next performed a Mn^2+-quenching experiment with Indo-1. Mn^2+ ions enter the cells through SOCC but cannot be pumped outside the cells by PMCA and NCX; once in the cells, Mn^2+ bound to Indo-1 and quenched its fluorescence measured at 430 nm. Thus, an increase of the Mn^2+ influx amplitude was associated with an increase of the Indo-1 quenching speed, and reversely.
# After a 10 min TG treatment to open the SOCC, 100 µM MnCl2 was added. Mn^2+ induced a quenching rate of −0.89 ± 0.05% Fo/s (n = 3, Figure 3A). […]
# To study directly the divalent ion influx through the SOCC with selected 2-APB analogs, we performed Mn^2+ quenching experiments. Mn^2+ ions bind to Indo-1 and quench the 430 nm emission wavelength fluorescence after excitation at 360 nm. The decrease of fluorescence is directly dependent on Mn^2+ entry through SOCC. […] After 60 s a 2-APB analog was added as indicated and the change in the curve slope was measured.
# [4] = tested on: ER Ca2+ stores of L15 fibroblasts; assay: Basal Ca2+ leak from ER stores, unidirectional 45Ca2+ flux in permeabilized L15 fibroblasts; format: cell-based
# Description: Measurements of SERCA-mediated ^45Ca^2+ store loading and IP3-dependent release from the ER Ca^2+ store were performed on permeabilized cells in unidirectional conditions. As this approach required the use of cells forming strongly adherent monolayers, we used L15 fibroblasts stably overexpressing IP3R1, similarly to our previous work.
# The L15 fibroblasts stably overexpressing IP3R1 were seeded in gelatin-coated 12-well plates (Greiner, Frickenhausen, Germany) at a density of 60,000 cells per well. Unidirectional ^45Ca^2+ flux experiments on confluent cell monolayers were performed at 30 °C after membrane permeabilization with saponin (40 µg/mL), exactly as previously described. After permeabilization, the non-mitochondrial Ca^2+ stores were loaded for 45 min in 120 mM KCl, 30 mM imidazole–HCl (pH 6.8), 5 mM MgCl2, 5 mM ATP, 0.44 mM EGTA, 10 mM NaN3, and 150 nM free ^45Ca^2+ (28 µCi mL^−1). Subsequently, efflux was initiated by incubation in efflux medium (120 mM KCl, 1 mM EGTA, 10 µM TG and 30 mM imidazole–HCl pH 6.8). […] The exact amount of Ca^2+ at each time point is calculated by summing in retrograde order the amount of radioactivity remaining in the cells at the end of the efflux and the radioactivity collected during the successive time intervals. […] These various parameters were measured both in control conditions or in the presence of various 2-APB analogs as indicated. […]
substance,measurement,setting,value
2-(dibiphenyl-4-ylboryloxy)ethanamine [P11],effect on [Ca2+]cyt after SOCE activation,[1],immediate decrease of [Ca^2+]cyt
same,Ki,[2],40 ± 5 nM
same,blockade of Mn2+ quenching rate,[3],≈ 90%
same,Indo-1 quenching rate by Mn2+,[3]; added 30 s prior to 100 µM MnCl2,-0.09 ± 0.01 % Fo/s
same,Ca2+ leak from the ER by an IP3-independent pathway,[4],did not induce a Ca^2+ leak
